# Laboratory results from publication PMC10041525, “New Dual Inhibitors of Bacterial Topoisomerases with Broad-Spectrum Antibacterial Activity and In Vivo Efficacy against Vancomycin-Intermediate Staphylococcus aureus” (Journal of Medicinal Chemistry, 2023).
# Read-outs that look alike come from different tables or passages of the source.
# How the values were obtained:
# [1] = test system: 100 A. baumannii strains (50 MDR, 50 non-MDR); assay: MIC broth microdilution at IHMA Europe, panel of 100 strains; type: cell-based; settings: for MIC / MIC50 / MIC90: Acinetobacter baumannii; for MIC50: read-out: MIC 50; for MIC90: read-out: MIC 90
# [2] = test system: P. aeruginosa ATCC 27853; assay: IHMA QC MIC; type: cell-based
smiles,measurement,setting,value
"C[C@@H](O)[C@H]1C(=O)N2C(C(=O)O)=C(S[C@@H]3CN[C@H](C(=O)N(C)C)C3)[C@H](C)[C@H]12 [Meropenem, meropenem]",MIC,"[1]; A. baumannii IHMA 2157614, Australia 2020, Non-MDR, read-out: MIC",0.25 µg/mL
same,MIC,"[1]; A. baumannii IHMA 2177232, Lithuania 2020, MDR, read-out: MIC",> 16 µg/mL
same,MIC,"[1]; A. baumannii IHMA 2177489, Lithuania 2020, MDR, read-out: MIC",> 16 µg/mL
same,MIC,"[1]; A. baumannii IHMA 2178574, Ukraine 2020, Non-MDR, read-out: MIC",≤ 0.06 µg/mL
same,MIC,"[1]; A. baumannii IHMA 2180134, Malaysia 2020, Non-MDR, read-out: MIC",0.25 µg/mL
same,MIC,"[1]; A. baumannii IHMA 2180142, Malaysia 2020, MDR, read-out: MIC",> 16 µg/mL
same,MIC,"[1]; A. baumannii IHMA 2181370, Morocco 2020, MDR, read-out: MIC",> 16 µg/mL
same,MIC,"[1]; A. baumannii IHMA 2183729, Argentina 2020, MDR, read-out: MIC",> 16 µg/mL
same,MIC,"[1]; A. baumannii IHMA 2183849, Argentina 2020, Non-MDR, read-out: MIC",0.12 µg/mL
same,MIC,"[1]; A. baumannii IHMA 2184382, Japan 2020, Non-MDR, read-out: MIC",0.12 µg/mL
same,MIC,"[1]; A. baumannii IHMA 2193375, Venezuela 2020, MDR, read-out: MIC",> 16 µg/mL
same,MIC,"[1]; A. baumannii IHMA 2193485, Venezuela 2020, Non-MDR, read-out: MIC",0.12 µg/mL
same,MIC,"[1]; A. baumannii IHMA 2193607, Venezuela 2020, MDR, read-out: MIC",> 16 µg/mL
same,MIC,"[1]; A. baumannii IHMA 2195460, Italy 2020, MDR, read-out: MIC",> 16 µg/mL
same,MIC,"[1]; A. baumannii IHMA 2196914, South Africa 2020, MDR, read-out: MIC",> 16 µg/mL
same,MIC,"[1]; A. baumannii IHMA 2196959, South Africa 2020, MDR, read-out: MIC",> 16 µg/mL
same,MIC,"[1]; A. baumannii IHMA 2203763, Spain 2020, MDR, read-out: MIC",> 16 µg/mL
same,MIC,"[1]; A. baumannii IHMA 2205144, Korea, South 2020, MDR, read-out: MIC",16 µg/mL
same,MIC,"[1]; A. baumannii IHMA 2206459, Taiwan 2020, MDR, read-out: MIC",> 16 µg/mL
same,MIC,"[1]; A. baumannii IHMA 2206507, Taiwan 2020, Non-MDR, read-out: MIC",0.12 µg/mL
same,MIC,"[1]; A. baumannii IHMA 2212575, Hungary 2020, Non-MDR, read-out: MIC",0.5 µg/mL
same,MIC,"[1]; A. baumannii IHMA 2215307, Hong Kong 2020, Non-MDR, read-out: MIC",0.25 µg/mL
same,MIC,"[1]; A. baumannii IHMA 2216586, Taiwan 2020, MDR, read-out: MIC",> 16 µg/mL
same,MIC,"[1]; A. baumannii IHMA 2223200, Colombia 2020, Non-MDR, read-out: MIC",0.12 µg/mL
same,MIC,"[1]; A. baumannii IHMA 2224017, Panama 2020, MDR, read-out: MIC",> 16 µg/mL
same,MIC,"[1]; A. baumannii IHMA 2224303, Panama 2020, Non-MDR, read-out: MIC",1 µg/mL
same,MIC,"[1]; A. baumannii IHMA 2231797, Greece 2020, MDR, read-out: MIC",> 16 µg/mL
same,MIC,"[1]; A. baumannii IHMA 2233099, Guatemala 2020, MDR, read-out: MIC",> 16 µg/mL
same,MIC,"[1]; A. baumannii IHMA 2233430, Kazakhstan 2020, MDR, read-out: MIC",> 16 µg/mL
same,MIC,"[1]; A. baumannii IHMA 2233548, Kazakhstan 2020, Non-MDR, read-out: MIC",0.25 µg/mL
same,MIC,"[1]; A. baumannii IHMA 2238964, Thailand 2020, MDR, read-out: MIC",> 16 µg/mL
same,MIC,"[1]; A. baumannii IHMA 2239052, Thailand 2020, Non-MDR, read-out: MIC",0.12 µg/mL
same,MIC,"[1]; A. baumannii IHMA 2261047, Belgium 2020, MDR, read-out: MIC",> 16 µg/mL
same,MIC,"[1]; A. baumannii IHMA 2261633, Canada 2020, Non-MDR, read-out: MIC",0.12 µg/mL
same,MIC,"[1]; A. baumannii IHMA 2274234, South Africa 2020, MDR, read-out: MIC",> 16 µg/mL
same,MIC,"[1]; A. baumannii IHMA 2274364, South Africa 2020, MDR, read-out: MIC",> 16 µg/mL
same,MIC,"[1]; A. baumannii IHMA 2275237, Chile 2020, Non-MDR, read-out: MIC",0.25 µg/mL
same,MIC,"[1]; A. baumannii IHMA 2275751, Jordan 2020, MDR, read-out: MIC",> 16 µg/mL
same,MIC,"[1]; A. baumannii IHMA 2316205, United States 2020, MDR, read-out: MIC",> 16 µg/mL
same,MIC,"[1]; MDR n = 50, read-out: MAX (maximum MIC; all strains inhibited)",> 16 µg/mL
same,MIC50,[1]; MDR n = 50,> 16 µg/mL
same,MIC90,[1]; MDR n = 50,> 16 µg/mL
same,MIC,"[1]; MDR n = 50, read-out: MIN (minimum MIC)",16 µg/mL
same,MIC,"[1]; all isolates n = 100, read-out: MAX (maximum MIC; all strains inhibited)",> 16 µg/mL
same,MIC50,[1]; all isolates n = 100,1 µg/mL
same,MIC90,[1]; all isolates n = 100,> 16 µg/mL
same,MIC,"[1]; all isolates n = 100, read-out: MIN (minimum MIC)",≤ 0.06 µg/mL
same,MIC,"[1]; non-MDR n = 50, read-out: MAX (maximum MIC)",1 µg/mL
same,MIC50,[1]; non-MDR n = 50,0.25 µg/mL
same,MIC90,[1]; non-MDR n = 50,0.25 µg/mL
same,MIC,"[1]; non-MDR n = 50, read-out: MIN (minimum MIC)",≤ 0.06 µg/mL
same,Percentage I,[1]; MDR n = 50,0%
same,Percentage R,[1]; MDR n = 50,100%
same,Percentage S,[1]; MDR n = 50,0%
same,Percentage I,"[1]; all n = 100, CLSI breakpoints",0%
same,Percentage R,"[1]; all n = 100, CLSI breakpoints",50%
same,Percentage S,"[1]; all n = 100, CLSI breakpoints",50%
same,Percentage I,[1]; non-MDR n = 50,0%
same,Percentage R,[1]; non-MDR n = 50,0%
same,Percentage S,[1]; non-MDR n = 50,100%
same,"MIC (QC, repeated tests)",[2],1 µg/mL
same,MIC,"[2]; Pseudomonas aeruginosa, ATCC27853, read-out: MIC (QC, repeated tests)",0.5 µg/mL
